# From patent publication US12055546B2, “Fluorescent probe for detecting carboxypeptidase activity” (THE UNIVERSITY OF TOKYO, priority 2018, dated 2024)
# Key:
# [1] = test system: LNCaP cell lysate (PSMA expressing prostate cancer cell); assay: Cell lysate assay, LNCaP; type: biochemical; conditions: probe 10 μM, 37° C.; for Increase in fluorescence in LNCaP cell lysate with inhibitor: 2-PMPA 10 μM
# Procedure: (§1) A PSMA specific inhibitor 2-PMPA (10 μM) was added to one of LNCaP cell lysate samples at the same time, and measurement was performed. • (2) The obtained fluorescence intensity of each lysate was normalized based on 0 minutes being set to 1, and then plot was performed with the incubation time on the horizontal axis.
# (§2) A solution (20 μM, 100 μL) of 2Me5GluAF-TG (Compound 32) and a cell lysate (0.36 mg/mL, 100 μL) were reacted in TBS-T buffer at 37° C., and the fluorescence intensity was measured every 30 minutes. The measurement procedure is as described in Example 3.
# (§3) Ex/em: 485/535 nm, n=3, probe final concentration: 10 μM, inhibitor (2-PMPA) concentration: 10 μM
# [2] = Absorption/fluorescence spectrum measurement; type: physicochemical; conditions: for Fluorescence under physiological conditions: as compared to fluorescein; for Absorption maximum (nm) / Fluorescence maximum (nm) / Quantum yield: 200 mM phosphate buffer (pH 7.4)
# Procedure: The absorption spectrum was measured using UV-2450 (SIMADZU), and the fluorescence spectrum was measured using F-7000 (HITACHI).
# FIG. 9 and FIG. 10 illustrate the results of the absorption/fluorescence spectrum measurement of 2Me5GluAF-TG (Compound 32). […] The absorption spectrum was measured using UV-2450 (SIMADZU), and the fluorescence spectrum was measured using F-7000 (HITACHI).
# LNCaP cells = assay: LC-UV/MS analysis of extracellular fluid after LNCaP imaging; type: cell-based
# Procedure: After imaging of LNCaP cells using 2Me5GluAF-TG, a collected extracellular fluid, and 2Me5GluAF-TG and 2MeTG synthesized as preparations were subjected to the LC-MS analysis under the following conditions.
# Probe concentration: 10 μM (2Me5GluAF-TG, extracellular fluid), 2 μM (2MeTG).
# [3] = test system: PC3 cells (PSMA non-expression); assay: Live cell imaging, PC3 cells (confocal microscope); type: cell-based; conditions: probe 10 μM in HBSS(+), image every 1 hour
# Procedure: (§4) A solution (final concentration: 10 μM) of 2Me5GluAF-TG (Compound 32) diluted with HBSS(+) was added to LNCaP cells (high PSMA expression) or PC3 cells (PSMA non-expression), and a fluorescence image was taken by a confocal microscope every 1 hour under the following conditions while culturing at 37° C. and 5% CO2.
# [4] = test system: human prostate cancer surgical specimen; assay: Study using human prostate cancer surgical specimen; conditions: 2.50 μM probe solution in 1×TBS, 40° C., up to 4 hours
# Procedure: • 1. Wash surgical specimen with 1×TBS buffer • 2. Add dropwise 2.50 μM of 2Me5GluAF-TG solution (diluted with 1×TBS buffer) so that the whole specimen is immersed. • 3. While heating to 40° C. with a heater, take a fluorescence image by Maestro for up to 4 hours • 4. Judge from the fluorescence image taken 4 hours after immersion, select and cut out several sites showing bright fluorescence and several sites showing no fluorescence, and fix with a 10% formalin solution • 5. Request a pathologist to perform HE staining/PSMA immunostaining on each site and evaluate a rate of cancer sites and PSMA expression
# The results of using four types of specimens are illustrated in FIG. 21 to FIG. 24. FIG. 25 illustrates a result obtained by changing the above protocol (changing a method so that a surface is covered with gauze soaked in a probe solution, temporarily removing the gauze, and taking a fluorescence image). • (a) of each figure illustrates a photograph before immersion of the surgical specimen in a Me5GluAF-TG solution and a photograph taken 4 hours after the immersion (the right side is a fluorescence image). The graph on the left side of (b) illustrates a change in fluorescence intensity at a selected site of the surgical specimen from the immersion in the Me5GluAF-TG solution to 4 hours after the immersion. […]
# PSMA [5] = biological target: T1, PSMA (Homo sapiens, UniProt Q04609); assay: Reactivity with PSMA purified enzyme (Example 6); type: biochemical
# PSMA [6] = biological target: T1, PSMA; assay: LC-UV/MS analysis of PSMA reaction solution; type: biochemical; conditions: 10 hours
# Procedure: A solution, prepared after recombinant human PSMA and 2Me5GluAF-TG (Compound 32) were reacted for 10 hours, and 2Me5GluAF-TG and 2MeTG synthesized as preparations were subjected to LC-UV/MS analysis.
# Probe concentration: 10 μM (2Me5GluAF-TG, enzyme reaction solution), 2 μM (2MeTG). The results are illustrated in FIG. 13 and FIG. 14.
# [7] = test system: PC3 cell lysate (PSMA non-expressing prostate cancer cell); assay: Cell lysate assay, PC3; type: biochemical; conditions: probe 10 μM, 37° C.
# Procedure: as §1, §2, §3
# [8] = test system: LNCaP cells (high PSMA expression); assay: Live cell imaging, LNCaP cells (confocal microscope); type: cell-based
# Procedure: as §4
# A probe (2Me5GluAF-TG) and an inhibitor were added, and after culturing at 37° C. and 5% CO2 for 15 hours, a fluorescence image was taken with a confocal microscope. Probe concentration: 10 μM, inhibitor (2-PMPA) concentration: 10 μM, Ex/em: 490/500-600 nm, Scale bar: 50 μm.
# Ten intracellular regions and ten extracellular regions were each surrounded by ROI, and an average value of the fluorescence intensity was calculated. FIG. 18a illustrates the taken fluorescence image, and FIG. 18b illustrates the average value of the fluorescence intensity with and without addition of the inhibitor.
# PSMA [9] = biological target: T1, PSMA; assay: Enzyme assay with PSMA (Example 2), fluorescence spectrum and Michaelis-Menten plot; type: biochemical; conditions: for Fluorescence rise due to enzymatic reaction with PSMA: 10 μM probe, 0.44 μg PSMA, 37° C., 15 hours
# Procedure: A change in the fluorescence spectrum due to the enzymatic reaction was measured as follows. The reactivity of 6-fluAFGlu to PSMA was evaluated by creating a Michaelis-Menten plot. • (1) Two solutions prepared by dissolving 10 μM probe in 200 μL of each assay buffer were provided. • (Assay buffer: 50 mM HEPES, 100 mM NaCl, pH 7.5) • (2) 0.44 μg of PSMA was added to each and incubated at 37° C. for 15 hours. For one of the solutions, a PSMA specific inhibitor 2-(Phosphonomethyl)-pentandioic acid (2-PMPA) (final concentration 10 μM) was also added at the same time and incubated at 37° C. for 15 hours. • (3) Each solution after the incubation in (2) was diluted to 2800 μL with 200 mM Na-Pi buffer, and the fluorescence spectrum was measured.
# FIG. 1 illustrates the fluorescence spectrum of 5-fluAFGlu and 6-fluAFGlu after addition of PSMA and an inhibitor (2-PMPA, 10 μM) (S/N to 417 at 516 nm).
# [10] = test system: LNCaP (PSMA expressing cell); assay: Live cell assay on 96-well plate (plate reader); type: cell-based
# Procedure: LNCaP as a PSMA expressing cell and PC3 as a PSMA non-expressing cell were cultured on a 96-well plate, a 10 μM aqueous solution of 6-fluAFGlu (Compound 25) was added thereto, and the cells were observed over time.
# [11] = test system: Cc1ccc(/N=N/C(=O)N[C@@H](CCC(=O)O)C(=O)O)cc1-c1c2ccc(=O)cc-2oc2cc(O)ccc12; assay: Reactivity with PSMA purified enzyme (Example 6); type: biochemical, human; conditions: other: apparent dynamic parameter, PSMA added to various probe concentrations, Table 4; 37.0 °C
# carboxypeptidase A (CPA) = biological target: T2, carboxypeptidase A (CPA) (Homo sapiens, UniProt P15085); assay: Enzyme assay with CPA; type: biochemical
# T2 sequence (P15085 111-419): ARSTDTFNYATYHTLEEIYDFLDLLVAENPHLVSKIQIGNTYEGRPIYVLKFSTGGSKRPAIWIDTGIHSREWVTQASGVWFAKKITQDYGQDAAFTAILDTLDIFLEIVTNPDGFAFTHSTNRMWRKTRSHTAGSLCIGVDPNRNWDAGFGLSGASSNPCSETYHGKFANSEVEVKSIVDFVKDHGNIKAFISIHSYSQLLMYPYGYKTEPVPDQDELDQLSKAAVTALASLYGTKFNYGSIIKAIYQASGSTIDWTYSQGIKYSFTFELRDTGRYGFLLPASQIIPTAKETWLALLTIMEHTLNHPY
# Procedure: • (1) First to third solutions prepared by dissolving 10 μM probe in 600 μL of each assay buffer were provided. • (Assay buffer: Tris-buffered saline (TBS)) (2) 2 μg of CPA was activated with 18 μL of 5 ng/mL trypsine solution for 1 hour • (3) 9 μL of the solution in (2) was added to the solution in (1), and the mixture was incubated at 37° C. for 5 hours. For one of the solutions, a CPA specific inhibitor; potato carboxypeptidase inhibitor (final concentration 10 μg/mL) was also added at the same time and incubated at 37° C. for 5 hours. • (4) 200 μL of each solution after the incubation in (3) was diluted to 2800 μL with 200 mM Na-Pi […], and the fluorescence spectrum was measured.
# [12] = apparent dynamic parameter with PSMA, Table 2
# T1 sequence (Q04609 whole entry): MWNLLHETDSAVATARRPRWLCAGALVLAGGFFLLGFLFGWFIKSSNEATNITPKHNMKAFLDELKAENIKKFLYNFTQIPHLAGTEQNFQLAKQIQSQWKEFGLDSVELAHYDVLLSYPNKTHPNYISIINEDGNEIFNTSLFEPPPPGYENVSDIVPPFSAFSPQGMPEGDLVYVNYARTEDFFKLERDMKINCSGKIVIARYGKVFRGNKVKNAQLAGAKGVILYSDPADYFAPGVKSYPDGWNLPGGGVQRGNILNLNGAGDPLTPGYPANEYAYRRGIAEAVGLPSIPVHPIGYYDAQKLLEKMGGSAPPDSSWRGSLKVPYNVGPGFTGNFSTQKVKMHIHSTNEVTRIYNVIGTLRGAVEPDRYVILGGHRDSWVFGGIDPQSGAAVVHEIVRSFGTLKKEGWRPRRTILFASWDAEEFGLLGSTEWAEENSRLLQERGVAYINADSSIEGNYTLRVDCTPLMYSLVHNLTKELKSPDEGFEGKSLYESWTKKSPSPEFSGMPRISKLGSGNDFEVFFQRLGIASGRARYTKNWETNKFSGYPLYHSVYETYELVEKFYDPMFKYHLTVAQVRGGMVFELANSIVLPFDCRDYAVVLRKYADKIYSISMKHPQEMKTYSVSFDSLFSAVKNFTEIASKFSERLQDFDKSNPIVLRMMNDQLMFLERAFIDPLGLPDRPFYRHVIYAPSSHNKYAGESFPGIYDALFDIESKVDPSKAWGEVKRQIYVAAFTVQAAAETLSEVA
molecule,measurement,setting,value
Cc1ccc(/N=N/C(=O)N[C@@H](CCC(=O)O)C(=O)O)cc1-c1c2ccc(=O)cc-2oc2cc(O)ccc12 [Compound 2Me5GluAF-TG],Increase in fluorescence in LNCaP cell lysate with inhibitor,[1],almost no increase in fluorescence was observed
same,Increase in fluorescence in LNCaP cell lysate,[1],a significant increase in fluorescence was observed
same,Φfl,[2]; 0.2M phosphate buffer (pH 7.4),0.002
same,λabs (nm),[2]; Table 3,495 nm
same,λem (nm),[2]; Table 3,516 nm
same,Fluorescence under physiological conditions,[2],almost no fluorescencence
same,Product in extracellular fluid (LC-MS),LNCaP cells; absence of the inhibitor (2-PMPA),production of fluorescent 2MeTG was confirmed
same,Stability of the probe in extracellular fluid (LC-MS),LNCaP cells; inhibitor added,stable
same,Fluorescence image in PC3 cells,[3],no change was observed in the fluorescence image
same,Relation of fluorescence increase to cancer site / PSMA expression,[4],a rough correlation between the increase in fluorescence intensity and the presence or absence of the cancer site or a PSMA expression level
same,Increase in fluorescence with PSMA,"PSMA [5]; 10 μM probe, 0.44 μg PSMA, 1×TBS, 37° C.",the increase in fluorescence due to the enzymatic reaction was observed
same,Increase in fluorescence with PSMA in presence of inhibitor,PSMA [5]; inhibitor 2-PMPA 10 μM,No increase in fluorescence was observed
same,Stability of the probe (LC-UV/MS),PSMA [6]; inhibitor (2-PMPA) added or absence of PSMA,stable
same,Products of the reaction with PSMA (LC-UV/MS),"PSMA [6]; probe 10 μM, in the presence of PSMA",2MeTG and 2Me5OH-TG exhibiting fluorescence in the presence of PSMA were produced
same,Increase in fluorescence in PC3 cell lysate,[7],almost no increase in fluorescence was observed
same,Fluorescence image intensity in LNCaP cells,"[8]; probe 10 μM in HBSS(+), image every 1 hour",the fluorescence intensity of the fluorescence image increased with the passage of time
same,Fluorescence image intensity with inhibitor,"[8]; probe 10 μM, 2-PMPA 10 μM, 15 hours",the intensity of the fluorescence image does not increase
same,Average fluorescence intensity inside versus outside the cell,"[8]; probe 10 μM, no inhibitor, 15 hours",the average value of the fluorescence intensity inside the cell is much higher than that outside the cell
O=C(O)CCC(NC(=O)N=Nc1ccc(C(=O)O)c(-c2c3ccc(=O)cc-3oc3cc(O)ccc23)c1)C(=O)O (centres unmarked) [Compound 6-fluAFGlu],Increase in fluorescence in LNCaP cell lysate with inhibitor,[1],almost no increase in fluorescence was observed
same,Increase in fluorescence in LNCaP cell lysate,[1],a significant increase in fluorescence was observed
same,Absorption maximum (nm),[2],494 nm
same,Fluorescence maximum (nm),[2],526 nm
same,Quantum yield,[2],0.002
same,Fluorescence under physiological conditions,[2],almost no fluorescencence
same,Fluorescence rise due to enzymatic reaction with PSMA,PSMA [9],a fluorescence rise due to an enzymatic reaction was observed
same,Km,PSMA [9]; [12],2.4 µM
same,kcat,PSMA [9]; [12],0.00055 s⁻¹
same,S/N of fluorescence spectrum after addition of PSMA and inhibitor,"PSMA [9]; at 516 nm, inhibitor 2-PMPA 10 μM",~417
same,Increase in fluorescence intensity in live LNCaP cells,"[10]; 10 μM probe in TBS, compared to PC3",a significant increase in fluorescence intensity was observed in LNCaP compared to PC3
same,Increase in fluorescence in live LNCaP cells with inhibitor,"[10]; 10 μM probe, 2-PMPA 10 μM",significantly suppressed
same,Km,"PSMA [5]; apparent dynamic parameter, PSMA added to various probe concentrations, Table 4",5 µM
same,kcat,"PSMA [5]; apparent dynamic parameter, Table 4",0.001 s⁻¹
same,Increase in fluorescence in PC3 cell lysate,[7],almost no increase in fluorescence was observed
O=C(O)CCC(NC(=O)N=Nc1ccc2c(c1)C(=O)OC21c2ccc(O)cc2Oc2cc(O)ccc21)C(=O)O (centres unmarked) [Compound 5-fluAFGlu],Absorption maximum (nm),[2],494 nm
same,Fluorescence maximum (nm),[2],521 nm
same,Quantum yield,[2],0.003
same,Fluorescence under physiological conditions,[2],almost no fluorescencence
same,Fluorescence rise due to enzymatic reaction with PSMA,PSMA [9],only in 6-fluAFGlu
recombinant human PSMA (Homo sapiens),Km,[11],4.3 µM
same,kcat,[11],0.066 s⁻¹
same,kcat/Km,[11],15300 M⁻¹ s⁻¹
O=C(N=Nc1ccc(C(=O)O)c(-c2c3ccc(=O)cc-3oc3cc(O)ccc23)c1)NC(Cc1ccccc1)C(=O)O (centres unmarked) [Compound 6-fluAFPhe],Absorption maximum (nm),[2],494 nm
same,Fluorescence maximum (nm),[2],519 nm
same,Quantum yield,[2],0.025
same,Fluorescence under physiological conditions,[2],almost no fluorescencence
same,Fluorescence rise due to enzymatic reaction with CPA,"carboxypeptidase A (CPA); 10 μM probe, 37° C., 5 hours",the fluorescence rise due to the enzymatic reaction was observed
same,S/N of fluorescence spectrum after addition of CPA1 and inhibitor,"carboxypeptidase A (CPA); at 517 nm, potato carboxypeptidase inhibitor, 10 μM",~13
